Results: patent US10711011B2, “Substituted oxazolidines as anti-bacterial agents” (BUGWORKS RESEARCH, INC., priority 2016, dated 2020)
≈ marks a conversion by molar mass, not a printed value.

Assays:
S. aureus ATCC 29213 = assay: Minimum Inhibitory Concentration (MIC) in LB media; assay type: cell-based, Staphylococcus aureus; settings: Staphylococcus aureus, ATCC29213, LB Media
Source text: (§1) The compounds of Formula I are of interest due to their potent antibacterial effects. The ability of the invention compounds disclosed herein to achieve an antibacterial effect may be evaluated with regard to their ability to inhibit the growth of bacterial species like Escherichia coli ATCC 25922, Staphylococcus aureus ATCC 29213, Klebsiella pneumoniae ATCC 13883, Acinetobacter baumannii ATCC 19606, Pseudomonas aurigenosa ATCC 27853, Enterococcus faecalis ATCC 29212 and Enterococcus faecalis ATCC 29212 using an assay based on the following Minimum Inhibitory Concentration (MIC) protocol:
(§2) The test bacteria are grown in Luria Bertani Broth (HIMEDIA M1245), 25 grams of the powder is dissolved in 1000 ml distilled water and sterilized by autoclaving at 15 lbs pressure (121° C.) for 20 minutes. The medium sterility is checked by incubating at 37° C. for a period of 48 h.
(§3) Bacterial cultures that are stored as glycerol stocks at −80° C. are sub cultured on LB agar plates to obtain isolated colonies. A single colony of each strain is cultured in LB broth. The cultures are incubated at 37° C., 200 rpm till they reach an optical density (OD at 600 nm) of 0.8 to 1. […] Test compounds are dissolved in dimethyl sulfoxide (DMSO) to a stock concentration of 4 mg/ml. A twofold dilution series of this DMSO stock is prepared in a 96 well V bottom microtitre plate from rows A to H. A 3 μL volume of these dilutions are transferred to a 96-well flat bottom microtitre assay plate. Controls to monitor the effects of DMSO and media sterility are included. Each well is inoculated with 150 μL of the above diluted culture. The plates are incubated at 37° C. overnight in a humidified incubator. The following morning, the plates are read using a Spectrophotometer at 600 nm wavelength. […] The antibacterial activity (MIC) determined against representative Gram positive (S. aureus, E. faecalis) and Gram negative (E. coli, P. aurigenosa, K. pneumoniae and A. baumannii) pathogen were reported Table 1.

E. faecalis ATCC 29212 = assay: Minimum Inhibitory Concentration (MIC) in LB media; assay type: cell-based, Enterococcus faecalis; settings: Enterococcus faecalis, ATCC29212
Source text: as §1, §2, §3

E. coli ATCC 25922 = assay: Minimum Inhibitory Concentration (MIC) in LB media; assay type: cell-based, Escherichia coli; settings: Escherichia coli, ATCC25922, LB Media
Source text: as §1, §2, §3

P. aurigenosa ATCC 27853 = assay: Minimum Inhibitory Concentration (MIC) in LB media; assay type: cell-based, Pseudomonas aurigenosa; settings: Pseudomonas, ATCC27853, LB Media
Source text: as §1, §2, §3

K. pneumoniae ATCC 13883 = assay: Minimum Inhibitory Concentration (MIC) in LB media; assay type: cell-based, Klebsiella pneumoniae; settings: Klebsiella pneumoniae, ATCC13883, LB Media
Source text: as §1, §2, §3

A. baumannii ATCC 19606 = assay: Minimum Inhibitory Concentration (MIC) in LB media; assay type: cell-based, Acinetobacter baumannii; settings: Acinetobacter baumannii, ATCC19606, LB Media
Source text: as §1, §2, §3

E. coli DNA gyrase = E. coli DNA gyrase (Escherichia coli, UniProt P0AES4+P0AES6); assay: biochemical; settings: supercoiling assay
Chain of E. coli DNA gyrase (P0AES4 whole entry, one chain of several): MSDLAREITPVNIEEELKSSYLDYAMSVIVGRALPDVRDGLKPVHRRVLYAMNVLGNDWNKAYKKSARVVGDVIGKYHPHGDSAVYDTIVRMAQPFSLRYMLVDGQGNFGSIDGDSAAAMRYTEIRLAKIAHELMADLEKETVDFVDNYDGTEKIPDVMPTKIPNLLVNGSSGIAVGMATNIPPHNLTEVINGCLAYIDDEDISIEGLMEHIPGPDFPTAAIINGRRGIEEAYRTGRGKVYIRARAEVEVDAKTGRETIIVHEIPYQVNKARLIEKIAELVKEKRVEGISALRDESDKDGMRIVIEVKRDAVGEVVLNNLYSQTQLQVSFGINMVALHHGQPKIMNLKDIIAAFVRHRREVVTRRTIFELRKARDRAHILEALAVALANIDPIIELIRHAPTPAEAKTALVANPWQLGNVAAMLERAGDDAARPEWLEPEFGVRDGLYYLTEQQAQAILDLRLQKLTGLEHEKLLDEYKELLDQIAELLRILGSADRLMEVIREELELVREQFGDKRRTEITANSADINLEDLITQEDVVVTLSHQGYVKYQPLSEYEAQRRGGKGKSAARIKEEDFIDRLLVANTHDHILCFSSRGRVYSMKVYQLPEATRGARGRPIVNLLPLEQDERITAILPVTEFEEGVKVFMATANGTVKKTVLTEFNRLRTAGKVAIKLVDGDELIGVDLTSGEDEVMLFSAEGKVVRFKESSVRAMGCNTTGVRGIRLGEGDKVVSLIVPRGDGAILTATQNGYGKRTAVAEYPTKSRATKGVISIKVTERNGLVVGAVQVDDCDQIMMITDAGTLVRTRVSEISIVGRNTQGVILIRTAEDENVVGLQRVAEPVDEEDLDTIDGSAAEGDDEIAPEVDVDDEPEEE

E. coli [ATCC 25922] = assay: In vivo efficacy in the mouse E. coli thigh infection model; settings: neutropenic BALB/c mice, oral
Procedure: To assess the Oral efficacy, Example 13 was tested in BALB/c mice thigh infection model following per oral doses of 100 mg/kg once, 50 mg/kg once and twice, 33 mg/kg thrice and 25 mg/kg four times over a 24 hour period post infection. This study was performed following all ethical practices as laid down in the guidelines for animal care (Registration number No. 1852/PO/Rc/S/16/CPCSEA). The study was approved by the Institutional Animals Ethics Committee (IAEC) of the test facility. The formulation used was 0.1% Tween80 in 0.25% CMC and Example 13 administered as suspension through an oral gavage. Neutropenic mice were infected with [˜1×10^6 CFU/mouse] E. coli [ATCC 25922] by intramuscular route. Two hours post infection, mice were treated orally with total doses of 100, 50, 50, 33 and 25 mg/kg of Example 13 as one, two, three and four equally divided doses over a 24 h period. Animals were sacrificed 24 hr post infection and thigh tissues were harvested to enumerate the bacterial CFU count. Thigh muscles were placed in 1 ml of sterile LB broth and homogenized using a homogenizer (Omni Tip (220 volt hand held)). Serial ten-fold dilutions of the thigh homogenates were prepared in sterile LB broth, 0.05 ml of four dilutions for each thigh was plated onto Lactose agar plates. […]

For `CN1C(=O)Cc2ccc(F)c(CCNCCC3CN(c4ccc5c(n4)NC(=O)CO5)C(=O)O3)c21` (single isomer, unassigned) [Example 13, 6-(5-(2-((2-(6-fluoro-1-methyl-2-oxoindolin-7-yl)ethyl)amino)ethyl)-2-oxooxazolidin-3-yl)-2H-pyrido[3,2-b][1,4]oxazin-3(4H)-one], the MIC (S. aureus ATCC 29213) was 0.03 µg/mL (≈ 0.0639 µM), the MIC (E. faecalis ATCC 29212) was 0.25 µg/mL (≈ 0.533 µM) and the MIC (E. coli ATCC 25922) was 0.06 µg/mL (≈ 0.128 µM). For the same compound, the MIC (P. aurigenosa ATCC 27853) was 0.5 µg/mL (≈ 1.07 µM), the MIC (K. pneumoniae ATCC 13883) was 0.125 µg/mL (≈ 0.266 µM) and the MIC (A. baumannii ATCC 19606) was 0.06 µg/mL (≈ 0.128 µM). For the same compound, the IC50 (E. coli DNA gyrase) was 0.05 µM, the “efficacy (bacterial density Log 10 CFU/thigh vs vehicle)” value (E. coli [ATCC 25922]; 100 mg/kg as single, two, three and four equally divided doses over 24 h) was “significant efficacy” and the “efficacy (bacterial density Log 10 CFU/thigh vs vehicle)” value (E. coli [ATCC 25922]; single dose of 50 mg/kg) was “ineffective”.
